Measured values: patent US9670213B2, “Pteridine ketone derivative and applications thereof as EGFR, BLK, and FLT3 inhibitor” (EAST CHINA UNIVERSITY OF SCIENCE AND TECHNOLOGY, priority 2012, dated 2017)

Tests used:
[1] = target: wild-type EGFR (Homo sapiens (Human), UniProt P00533); assay: In vitro EGFR kinase activity assay (Z'-Lyte); assay type: biochemical; settings: EGFR WT; read-out: Inhibitory activity on EGFR kinase (IC50, nM) WT;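 also: Ten-point dose series from 5.1×10^−11 to 1.0×10^−6 mol/L, kinase reaction 1.5 h at room temperature, then 1 h development cleaving unphosphorylated peptide, phosphopeptide as 100% phosphorylation control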
Experimental: (§8) Inhibitory effects in vitro of the compounds provided in the present invention on EGFR kinase activity was tested as follows:
(§9) 10 concentration gradients, from 5.1×10^−11 mol/L to 1.0×10^−6 mol/L, were set for all of the compounds to be tested.
(§10) 10 μL of kinase reaction system comprised 2.5 μL of compound solution, 5 μL of Kinase/peptide mixture, and 2.5 μL of ATP solution. 5 μL of phosphopeptide solution was used in place of kinase/peptide mixture as 100% phosphorylation control. […] After thoroughly mixing the solution within the plate, the plate was incubated at room temperature for 1.5 hours. 5 μL of DevelopmentSolution was added into each well, and then the plate was incubated at room temperature for another 1 hour, and non-phosphorylated peptide was cleaved within this period. Finally, the reaction was quenched by adding 5 μL of Stop Reagent. The Plate was measured with EnVision Multilabel Reader (Perkin Elmer). Experimental data were calculated by using GraphPad Prism version 4.0. Each experiment was repeated more than three times.

[2] = target: EGFR-L858R (Homo sapiens (Human), UniProt P00533, L858R); assay: In vitro EGFR kinase activity assay (Z'-Lyte); assay type: biochemical; settings: read-out: Inhibitory activity on EGFR kinase (IC50, nM) L858R;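 also: Cell-free kinase reaction with peptide substrate and ATP, 1.5 h at room temperature, then development step cleaving non-phosphorylated peptide, 10-point dilution series 0.051–1000 nM, phosphopeptide as 100% phosphorylation control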
Experimental: as §8, §9, §10

[3] = tested on: HCC827 (non-small cell lung cancer cells, EGFR del E746-A750); assay: Cell proliferation and growth inhibition analysis; assay type: cell-based; settings: Homo sapiens, 72 hours, read-out: Inhibitory activity on cell proliferation (IC50, μM) HCC827
Experimental: (§1) Cell proliferation was evaluated by MTS assay. Cells were exposed to the process conditions for 72 hours, and the number of cells for each cell line used in the experiment was adjusted according to the absorbance value (absorbance value at 490 nm was 1.3-2.2). 6 concentration gradients (0.1 nM-10 μM) were set for the compounds to be tested, with six parallel controls for each concentration.
(§2) H1975, HCC827, A549, BT474, MCF-7, SK-BR-3 cells were cultured in the corresponding medium. Upon recovery, the cells were passaged at least two times and then used in experiments. Cells in Log phase were trypsinized and resuspended in the medium. H1975 (1000 cells per well), BT474 (1500 cells per well), MCF-7 (1500 cells per well), HCC827 (2000 cells per well), SK-BR-3 (2000 cells per well), A549 (2000 cells per well) were seeded into 96-well plates, the volume was 100 μL, and 6 rows and 7 columns were set. The plate was placed in an incubator at 37° C. of 5% carbon dioxide overnight. Compounds were dissolved in DMSO to obtain the concentration of […], and then gradually diluted to obtain the concentration of compound as […], 0.1 μM, 0.01 μM, 0.001 μM, 0.0001 μM. 2 μL of compound solution was added into 998 μL of medium, and the resulting mixture was thoroughly mixed. 100 μL of mixture was added into 96-well plate. […] After the cells were cultured for 68 hours, 20 μL of MTT (5 mg/mL) was added. After 4 hours, the supernatant was discarded and 150 μL of DMSO was added. The resulting system was shaken for 10 minutes, and the plate was read with Synergy HT (Bio TeK) (OD490). The data was calculated by GraphPad Prism version 4.0, and IC50 was obtained by non-linear regression model using dose-response curve.

[4] = tested on: H1975 (non-small cell lung cancer cells, EGFR L858R/T790M); assay: Cell proliferation and growth inhibition analysis; assay type: cell-based; settings: Homo sapiens, NCI-H1975, 72 hours, read-out: Inhibitory activity on cell proliferation (IC50, μM) H1975
Experimental: as §1, §2

[5] = target: FLT3 (Homo sapiens (Human), UniProt P36888); assay: FLT3 kinase activity assay (Caliper); assay type: biochemical; settings: read-out: Inhibitory activity on kinase (IC50, nM) FLT3
Experimental: (§3) Preparation of 1× kinase matrix buffer and stop buffer.
(§4) Preparation of compound solution. The compound was dissolved in 100% DMSO to a concentration, which was 50 times of the final highest inhibiting-concentration. 100 μL of the compound solution as said above was transferred into wells of 96-well plate. The above compound solution was sequentially diluted to the final desired concentration. In two blank wells of same 96-well plate, 100 μL of 100% DMSO was added as no-compound and no-kinase control, and this plate was used as the original plate.
(§5) Preparation of intermediate plate. 10 μL of compound solution was transferred from the original plate to another 96-well plate as the intermediate plate; 90 μL of 1× kinase buffer was added into each well of the intermediate plate, and the intermediate plate was shaken for 10 min.
(§6) Preparation of assay plate. 5 μL of solution from each well of intermediate plate was added into a 384-well plate, and repeated controls were set.
(§7) Kinase reaction. 2.5× kinase solution and 2.5× peptide solution were prepared. 2.5× kinase solution was transferred into assay plate. Assay plate comprised 5 μL of the compound solution in 10% DMSO. 10 μL of 2.5× kinase solution was added in each well of 384-well assay plate. […] 2.5× peptide solution was added into each well. After incubated at 28° C. for an appropriate time, 25 μL of stop buffer was added to quench the reaction. Experimental data were collected in Caliper. Curve was fitted.

[6] = target: BLK (Homo sapiens (Human), UniProt P51451); assay: BLK kinase activity assay (Caliper); assay type: biochemical; settings: read-out: Inhibitory activity on kinase (IC50, nM) BLK
Experimental: as §3, §4, §5, §6, §7

[7] = target: EGFR-T790M (Homo sapiens (Human), UniProt P00533, T790M); assay: In vitro EGFR kinase activity assay (Z'-Lyte); settings: read-out: Inhibitory activity on EGFR kinase (IC50, nM) T790M
Experimental: as §8, §9, §10

[8] = tested on: MCF-7; assay: Cell proliferation and growth inhibition analysis; assay type: cell-based; settings: Homo sapiens, MCF7; MCF-7 cells, 72 hours; read-out: Inhibitory activity on cell proliferation (IC50, μM) MCF-7
Experimental: as §1, with “Cell proliferation and growth inhibition analysis: H1975 (non-small cell lung cancer cells, EGFR^L858/T790M), HCC827 (non-small cell lung cancer cells, EGFR^del E746-A750), A549 (non-small cell lung cancer cells, EGFR wild-type), BT474 (breast cancer cells, Her2 overexpression), SK-BR-3 (breast cancer cells, Her2 overexpression), MCF-7 (breast cancer cells, […]) cells were obtained from ATCC. Cell proliferation” for “Cell proliferation”

[9] = tested on: SK-BR-3 (breast cancer cells, Her2 overexpression); assay: Cell proliferation and growth inhibition analysis; assay type: cell-based; settings: Homo sapiens; SK-BR-3 cells, 72 hours; read-out: Inhibitory activity on cell proliferation (IC50, μM) SK-BR-3
Experimental: as §1, with “Cell proliferation and growth inhibition analysis: H1975 (non-small cell lung cancer cells, EGFR^L858/T790M), HCC827 (non-small cell lung cancer cells, EGFR^del E746-A750), A549 (non-small cell lung cancer cells, EGFR wild-type), BT474 (breast cancer cells, Her2 overexpression), SK-BR-3 (breast cancer cells, Her2 overexpression), MCF-7 (breast cancer cells, […]) cells were obtained from ATCC. Cell proliferation” for “Cell proliferation”

[10] = tested on: A549 (non-small cell lung cancer cells, EGFR wild-type); assay: Cell proliferation and growth inhibition analysis; assay type: cell-based; settings: Homo sapiens, 72 hours, read-out: Inhibitory activity on cell proliferation (IC50, μM) A549
Experimental: as §1, with “Cell proliferation and growth inhibition analysis: H1975 (non-small cell lung cancer cells, EGFR^L858/T790M), HCC827 (non-small cell lung cancer cells, EGFR^del E746-A750), A549 (non-small cell lung cancer cells, EGFR wild-type), BT474 (breast cancer cells, Her2 overexpression), SK-BR-3 (breast cancer cells, Her2 overexpression), MCF-7 (breast cancer cells, […]) cells were obtained from ATCC. Cell proliferation” for “Cell proliferation”

[11] = tested on: BT474 (breast cancer cells, Her2 overexpression); assay: Cell proliferation and growth inhibition analysis; assay type: cell-based; settings: Homo sapiens, BT-474, 72 hours, read-out: Inhibitory activity on cell proliferation (IC50, μM) BT474
Experimental: as §1, with “Cell proliferation and growth inhibition analysis: H1975 (non-small cell lung cancer cells, EGFR^L858/T790M), HCC827 (non-small cell lung cancer cells, EGFR^del E746-A750), A549 (non-small cell lung cancer cells, EGFR wild-type), BT474 (breast cancer cells, Her2 overexpression), SK-BR-3 (breast cancer cells, Her2 overexpression), MCF-7 (breast cancer cells, […]) cells were obtained from ATCC. Cell proliferation” for “Cell proliferation”

[12] = target: EGFR-L858R/T790M (Homo sapiens (Human), UniProt P00533, L858R/T790M); assay: In vitro EGFR kinase activity assay (Z'-Lyte); assay type: biochemical; settings: read-out: Inhibitory activity on EGFR kinase (IC50, nM) T790M/L858R;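 also: Cell-free kinase reaction with peptide substrate and ATP, 1.5 h at room temperature, development cleaving unphosphorylated peptide, 10-point dilution 0.051–1000 nM, phosphopeptide as 100% phosphorylation control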
Sequence of EGFR-L858R/T790M (P00533 25-1210 T790M/L858R): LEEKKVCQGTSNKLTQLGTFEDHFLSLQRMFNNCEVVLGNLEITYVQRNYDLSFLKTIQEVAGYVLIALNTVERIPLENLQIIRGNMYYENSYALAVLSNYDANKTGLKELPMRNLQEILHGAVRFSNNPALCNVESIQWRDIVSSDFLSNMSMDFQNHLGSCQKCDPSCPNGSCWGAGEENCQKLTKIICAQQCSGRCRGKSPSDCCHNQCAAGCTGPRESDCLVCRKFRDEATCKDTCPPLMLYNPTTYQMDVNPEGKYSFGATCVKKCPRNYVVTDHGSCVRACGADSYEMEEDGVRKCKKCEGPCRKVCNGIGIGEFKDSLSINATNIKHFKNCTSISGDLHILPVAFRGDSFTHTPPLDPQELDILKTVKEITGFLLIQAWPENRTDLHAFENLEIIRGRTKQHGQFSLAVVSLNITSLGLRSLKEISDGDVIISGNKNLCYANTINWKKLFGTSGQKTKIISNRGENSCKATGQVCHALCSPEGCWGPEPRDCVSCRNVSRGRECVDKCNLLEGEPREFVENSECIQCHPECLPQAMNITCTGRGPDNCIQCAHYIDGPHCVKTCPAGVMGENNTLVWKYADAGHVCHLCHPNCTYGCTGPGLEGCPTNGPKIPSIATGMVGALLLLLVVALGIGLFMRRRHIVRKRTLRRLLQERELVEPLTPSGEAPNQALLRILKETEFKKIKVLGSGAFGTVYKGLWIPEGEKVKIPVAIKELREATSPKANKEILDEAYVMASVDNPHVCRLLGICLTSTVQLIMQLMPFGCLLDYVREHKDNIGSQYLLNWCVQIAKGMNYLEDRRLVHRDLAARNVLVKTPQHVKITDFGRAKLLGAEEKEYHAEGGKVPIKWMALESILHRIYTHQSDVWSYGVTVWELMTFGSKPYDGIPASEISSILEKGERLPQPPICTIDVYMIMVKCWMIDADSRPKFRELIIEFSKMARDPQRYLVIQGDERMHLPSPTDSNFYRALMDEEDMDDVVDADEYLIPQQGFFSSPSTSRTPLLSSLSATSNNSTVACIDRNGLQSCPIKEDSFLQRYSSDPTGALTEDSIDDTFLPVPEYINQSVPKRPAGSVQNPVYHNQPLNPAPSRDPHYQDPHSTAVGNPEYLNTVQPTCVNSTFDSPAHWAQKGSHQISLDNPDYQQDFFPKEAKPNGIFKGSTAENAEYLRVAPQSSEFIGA

Sequence of EGFR-L858R (P00533 25-1210 L858R): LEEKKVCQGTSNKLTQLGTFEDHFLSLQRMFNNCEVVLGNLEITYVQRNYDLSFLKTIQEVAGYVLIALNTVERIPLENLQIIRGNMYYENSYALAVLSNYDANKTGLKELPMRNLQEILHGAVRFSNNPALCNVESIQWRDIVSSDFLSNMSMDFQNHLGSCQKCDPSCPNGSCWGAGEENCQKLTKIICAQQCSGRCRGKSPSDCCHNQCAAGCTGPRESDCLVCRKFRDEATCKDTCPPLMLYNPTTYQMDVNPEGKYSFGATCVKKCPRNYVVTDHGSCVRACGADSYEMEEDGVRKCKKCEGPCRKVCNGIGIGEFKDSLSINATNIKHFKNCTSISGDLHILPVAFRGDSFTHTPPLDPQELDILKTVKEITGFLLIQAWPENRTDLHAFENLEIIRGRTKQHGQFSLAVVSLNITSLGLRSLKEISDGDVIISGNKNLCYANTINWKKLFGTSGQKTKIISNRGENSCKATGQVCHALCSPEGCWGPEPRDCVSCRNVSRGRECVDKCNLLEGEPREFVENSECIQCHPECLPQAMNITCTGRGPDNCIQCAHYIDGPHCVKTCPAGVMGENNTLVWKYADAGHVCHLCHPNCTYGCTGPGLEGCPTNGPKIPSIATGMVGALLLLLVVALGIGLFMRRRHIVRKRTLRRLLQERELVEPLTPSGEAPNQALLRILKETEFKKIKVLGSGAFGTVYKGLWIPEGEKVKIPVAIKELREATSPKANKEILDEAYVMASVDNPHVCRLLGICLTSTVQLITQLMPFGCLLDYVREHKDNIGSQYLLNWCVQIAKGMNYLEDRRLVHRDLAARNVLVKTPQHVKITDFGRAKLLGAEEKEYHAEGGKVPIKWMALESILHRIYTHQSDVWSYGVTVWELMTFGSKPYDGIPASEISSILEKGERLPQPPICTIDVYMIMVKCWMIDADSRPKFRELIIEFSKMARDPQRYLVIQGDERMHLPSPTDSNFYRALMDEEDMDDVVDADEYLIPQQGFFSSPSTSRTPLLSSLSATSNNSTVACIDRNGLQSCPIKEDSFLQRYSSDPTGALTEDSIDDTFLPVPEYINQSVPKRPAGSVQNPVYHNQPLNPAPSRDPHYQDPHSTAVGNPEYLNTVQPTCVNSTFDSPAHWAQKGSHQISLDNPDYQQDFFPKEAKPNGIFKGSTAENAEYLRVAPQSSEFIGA
Sequence of BLK (P51451 whole entry): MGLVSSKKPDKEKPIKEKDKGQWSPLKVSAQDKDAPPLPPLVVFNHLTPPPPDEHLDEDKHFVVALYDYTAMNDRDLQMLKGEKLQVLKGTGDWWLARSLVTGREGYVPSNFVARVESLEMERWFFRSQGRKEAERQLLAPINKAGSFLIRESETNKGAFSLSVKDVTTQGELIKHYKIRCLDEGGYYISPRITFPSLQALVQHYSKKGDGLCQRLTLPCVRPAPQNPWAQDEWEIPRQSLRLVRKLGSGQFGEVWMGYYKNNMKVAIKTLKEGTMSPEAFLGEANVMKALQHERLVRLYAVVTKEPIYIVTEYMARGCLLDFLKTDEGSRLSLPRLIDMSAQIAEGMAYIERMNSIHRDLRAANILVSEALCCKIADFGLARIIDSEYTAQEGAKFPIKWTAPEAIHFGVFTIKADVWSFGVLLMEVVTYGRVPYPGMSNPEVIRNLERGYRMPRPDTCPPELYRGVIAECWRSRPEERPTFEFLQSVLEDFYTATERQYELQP
Sequence of wild-type EGFR (P00533 25-1210): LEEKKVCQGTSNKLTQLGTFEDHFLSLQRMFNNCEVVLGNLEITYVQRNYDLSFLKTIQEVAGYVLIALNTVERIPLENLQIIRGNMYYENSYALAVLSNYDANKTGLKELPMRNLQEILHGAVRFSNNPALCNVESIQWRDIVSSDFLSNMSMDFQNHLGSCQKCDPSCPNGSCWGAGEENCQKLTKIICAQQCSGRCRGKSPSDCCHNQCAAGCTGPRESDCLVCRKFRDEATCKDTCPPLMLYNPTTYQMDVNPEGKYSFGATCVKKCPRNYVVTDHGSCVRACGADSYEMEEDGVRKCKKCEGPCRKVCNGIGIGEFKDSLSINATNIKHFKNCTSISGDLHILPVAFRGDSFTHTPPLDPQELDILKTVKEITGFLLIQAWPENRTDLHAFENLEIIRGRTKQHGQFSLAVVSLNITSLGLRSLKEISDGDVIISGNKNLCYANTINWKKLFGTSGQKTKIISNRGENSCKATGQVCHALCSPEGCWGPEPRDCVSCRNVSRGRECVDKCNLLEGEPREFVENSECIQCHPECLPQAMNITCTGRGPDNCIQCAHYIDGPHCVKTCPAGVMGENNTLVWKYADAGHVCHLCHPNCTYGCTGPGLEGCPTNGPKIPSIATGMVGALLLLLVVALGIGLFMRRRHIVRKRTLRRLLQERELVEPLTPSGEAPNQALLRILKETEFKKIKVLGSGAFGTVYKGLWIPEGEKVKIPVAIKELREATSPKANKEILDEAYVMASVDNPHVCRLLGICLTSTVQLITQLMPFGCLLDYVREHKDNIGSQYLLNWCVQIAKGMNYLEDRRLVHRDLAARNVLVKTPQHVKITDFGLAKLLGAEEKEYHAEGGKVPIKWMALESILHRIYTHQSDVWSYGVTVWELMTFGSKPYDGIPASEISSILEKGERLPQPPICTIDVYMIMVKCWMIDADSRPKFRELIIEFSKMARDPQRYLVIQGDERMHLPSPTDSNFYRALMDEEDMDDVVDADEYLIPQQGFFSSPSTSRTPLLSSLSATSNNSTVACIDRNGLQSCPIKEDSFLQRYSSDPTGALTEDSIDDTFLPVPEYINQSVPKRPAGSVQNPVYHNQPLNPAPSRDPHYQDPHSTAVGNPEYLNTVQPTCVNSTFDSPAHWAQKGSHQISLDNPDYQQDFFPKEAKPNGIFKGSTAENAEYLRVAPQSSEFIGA
Sequence of FLT3 (P36888 27-993): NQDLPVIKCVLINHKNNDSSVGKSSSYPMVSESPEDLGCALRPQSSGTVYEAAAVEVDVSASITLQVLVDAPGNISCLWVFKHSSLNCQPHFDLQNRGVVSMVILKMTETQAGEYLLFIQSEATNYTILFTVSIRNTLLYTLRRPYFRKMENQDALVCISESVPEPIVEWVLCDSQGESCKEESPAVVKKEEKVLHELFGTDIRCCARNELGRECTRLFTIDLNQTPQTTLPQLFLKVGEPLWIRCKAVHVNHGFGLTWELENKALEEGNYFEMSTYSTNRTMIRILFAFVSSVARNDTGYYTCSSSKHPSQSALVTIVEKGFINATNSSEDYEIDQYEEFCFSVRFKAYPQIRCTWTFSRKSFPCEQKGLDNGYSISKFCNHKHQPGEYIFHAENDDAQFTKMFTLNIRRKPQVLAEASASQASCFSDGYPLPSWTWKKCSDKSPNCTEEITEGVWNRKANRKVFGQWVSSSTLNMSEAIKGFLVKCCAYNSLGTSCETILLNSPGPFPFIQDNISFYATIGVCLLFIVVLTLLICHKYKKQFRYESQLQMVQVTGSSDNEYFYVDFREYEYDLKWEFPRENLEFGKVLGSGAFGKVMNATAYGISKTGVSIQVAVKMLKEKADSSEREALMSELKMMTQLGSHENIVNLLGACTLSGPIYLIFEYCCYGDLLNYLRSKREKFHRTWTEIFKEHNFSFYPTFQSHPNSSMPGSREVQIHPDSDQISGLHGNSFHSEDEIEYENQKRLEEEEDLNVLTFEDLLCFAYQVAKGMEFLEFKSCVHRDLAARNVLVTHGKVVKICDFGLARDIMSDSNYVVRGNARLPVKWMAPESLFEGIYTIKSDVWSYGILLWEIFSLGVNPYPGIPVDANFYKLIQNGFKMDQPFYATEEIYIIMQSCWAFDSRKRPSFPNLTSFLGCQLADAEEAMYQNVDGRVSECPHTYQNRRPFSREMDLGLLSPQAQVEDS

C=CC(=O)Nc1ccc(-n2c(=O)cnc3cnc(Nc4ccc(N5CCOCC5)cc4)nc32)cc1 [Compound 003, N-(4-(2-(4-morpholino-phenylamino)-7-oxo-8(7H)-pteridin-yl)phenyl)acrylamide]
IC50 [1]: 8010 nM
IC50 [2]: 4080 nM
IC50 [3]: 3.01 µM
IC50 [4]: > 10 µM
IC50 [5]: 137 nM
IC50 [6]: 4170 nM
IC50 [7]: 8700 nM
IC50 [8]: > 10 µM
IC50 [9]: > 10 µM
IC50 [10]: > 10 µM
IC50 [11]: > 10 µM
IC50 [12]: 3300 nM
